According to ChEMBL document CHEMBL1201862, “PubChem BioAssay data set” (2004):
Blank lines part the entries; values can stand above or below the compound they belong to. Calls of active or inactive are those of the source.

Key:
P388 = assay: cells; assay type: functional; settings: Mus musculus
SN12K1 = assay: cells; assay type: functional; settings: Homo sapiens
P388/ADR = assay: cells; assay type: functional; settings: Mus musculus
[1] = P. falciparum Dd2 growth inhibitors, dose response, SYBR Green, cherry-picked samples (AID 1159567); assay type: functional, cell-based
[2] = toxicity to human hepatoma HepG2 cells – cell-based, cherry-picked samples, cytotoxicity control, dose response (AID 1159577); assay type: functional
[3] = blockers of HIV-1 envelope-mediated cell-cell fusion – cherry-pick, dose response (AID 652057); assay type: functional, cell-based
[4] = off-target signal loss in HeLa-CEM21 co-culture – HeLa F-luc CTL cells, cherry-picked, counter-screen for HIV-1 Env fusion inhibitor project, dose response (AID 652040); assay type: functional, cell-based;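 further: potency for signal decrease marking cytotoxic or nonspecific inhibition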
[5] = viability loss in CEM21 cells – cell-based, CellTiter-Glo luminescence, cherry-picked, cytotoxicity control for viral fusion inhibitor project, dose response (AID 652042); assay type: functional;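 further: potency for signal decrease meaning cytotoxicity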
[6] = HIV-1 AD8 envelope cell-cell fusion blockers – cherry-pick, dose response (AID 652062); assay type: functional, cell-based;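 further: luciferase signal from cell-cell fusion driven by HIV-1 clade B AD8 Env; potency is for inhibitors of fusion seen as a drop in luminescence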
Caspase-3 = target: T1, Caspase-3 (Homo sapiens, UniProt P42574); assay type: functional;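 further: Dose-response selectivity test against caspase-3 for candidate inhibitors of sentrin-specific proteases (SENPs)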
T1 sequence (P42574 whole entry): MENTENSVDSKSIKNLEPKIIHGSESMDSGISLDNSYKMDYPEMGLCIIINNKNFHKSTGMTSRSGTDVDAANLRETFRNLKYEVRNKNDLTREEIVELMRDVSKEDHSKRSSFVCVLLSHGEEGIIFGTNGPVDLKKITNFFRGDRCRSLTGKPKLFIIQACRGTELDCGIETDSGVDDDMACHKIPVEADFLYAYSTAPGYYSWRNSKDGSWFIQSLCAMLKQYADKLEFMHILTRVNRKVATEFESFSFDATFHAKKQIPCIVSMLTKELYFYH

[7] = target: T2, Sentrin-specific protease 6 (Homo sapiens, UniProt Q9GZR1); assay type: functional;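 further: Luminescence-based dose-response confirmatory assay of SENP6 inhibition, following up an ultra-high-throughput screen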
T2 sequence (Q9GZR1 whole entry): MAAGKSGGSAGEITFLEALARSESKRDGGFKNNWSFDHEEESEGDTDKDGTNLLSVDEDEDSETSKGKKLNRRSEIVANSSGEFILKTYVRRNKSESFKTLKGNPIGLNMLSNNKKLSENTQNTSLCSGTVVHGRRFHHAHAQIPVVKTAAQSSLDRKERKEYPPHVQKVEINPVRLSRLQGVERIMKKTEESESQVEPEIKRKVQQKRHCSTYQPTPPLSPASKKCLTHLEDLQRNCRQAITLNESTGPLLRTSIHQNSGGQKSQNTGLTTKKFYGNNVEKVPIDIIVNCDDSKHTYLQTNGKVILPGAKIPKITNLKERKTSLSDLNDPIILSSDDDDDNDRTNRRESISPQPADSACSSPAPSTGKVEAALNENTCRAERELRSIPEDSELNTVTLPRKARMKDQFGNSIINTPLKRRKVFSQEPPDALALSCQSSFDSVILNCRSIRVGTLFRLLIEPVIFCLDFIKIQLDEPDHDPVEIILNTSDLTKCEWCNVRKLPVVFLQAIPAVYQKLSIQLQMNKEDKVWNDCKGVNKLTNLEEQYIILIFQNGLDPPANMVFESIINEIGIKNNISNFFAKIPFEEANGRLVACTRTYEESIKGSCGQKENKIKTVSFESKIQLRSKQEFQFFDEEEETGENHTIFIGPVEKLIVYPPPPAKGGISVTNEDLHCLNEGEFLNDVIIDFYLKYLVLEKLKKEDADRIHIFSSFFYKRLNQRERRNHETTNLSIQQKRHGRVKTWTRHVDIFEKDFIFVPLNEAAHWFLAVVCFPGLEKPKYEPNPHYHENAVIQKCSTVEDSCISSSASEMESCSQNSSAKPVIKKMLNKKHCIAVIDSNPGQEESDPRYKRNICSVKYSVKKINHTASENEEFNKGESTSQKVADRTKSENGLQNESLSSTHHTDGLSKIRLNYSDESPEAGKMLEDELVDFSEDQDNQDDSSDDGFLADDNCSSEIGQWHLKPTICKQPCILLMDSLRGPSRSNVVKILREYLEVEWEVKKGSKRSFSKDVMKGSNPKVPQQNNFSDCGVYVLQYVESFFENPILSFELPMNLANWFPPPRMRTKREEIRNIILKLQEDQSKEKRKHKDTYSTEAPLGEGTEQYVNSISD

[8] = target: T3, Sentrin-specific protease 8 (Homo sapiens, UniProt Q96LD8); assay type: functional;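 further: luminescence read-out of SENP8 inhibition, dose-response confirmation following an ultra-high-throughput screen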
T3 sequence (Q96LD8 whole entry): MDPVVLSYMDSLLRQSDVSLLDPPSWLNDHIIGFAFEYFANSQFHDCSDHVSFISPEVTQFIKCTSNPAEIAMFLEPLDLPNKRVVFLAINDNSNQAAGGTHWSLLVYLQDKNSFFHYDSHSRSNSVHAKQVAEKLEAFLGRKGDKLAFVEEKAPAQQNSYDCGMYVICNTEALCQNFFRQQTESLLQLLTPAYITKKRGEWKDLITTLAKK

[9] = target: T4, Sentrin-specific protease 7 (Homo sapiens, UniProt Q9BQF6); assay type: functional;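 further: Luminescence-based dose-response confirmation of ultra-high-throughput screening hits, measuring inhibition of SENP7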
T4 sequence (Q9BQF6 whole entry): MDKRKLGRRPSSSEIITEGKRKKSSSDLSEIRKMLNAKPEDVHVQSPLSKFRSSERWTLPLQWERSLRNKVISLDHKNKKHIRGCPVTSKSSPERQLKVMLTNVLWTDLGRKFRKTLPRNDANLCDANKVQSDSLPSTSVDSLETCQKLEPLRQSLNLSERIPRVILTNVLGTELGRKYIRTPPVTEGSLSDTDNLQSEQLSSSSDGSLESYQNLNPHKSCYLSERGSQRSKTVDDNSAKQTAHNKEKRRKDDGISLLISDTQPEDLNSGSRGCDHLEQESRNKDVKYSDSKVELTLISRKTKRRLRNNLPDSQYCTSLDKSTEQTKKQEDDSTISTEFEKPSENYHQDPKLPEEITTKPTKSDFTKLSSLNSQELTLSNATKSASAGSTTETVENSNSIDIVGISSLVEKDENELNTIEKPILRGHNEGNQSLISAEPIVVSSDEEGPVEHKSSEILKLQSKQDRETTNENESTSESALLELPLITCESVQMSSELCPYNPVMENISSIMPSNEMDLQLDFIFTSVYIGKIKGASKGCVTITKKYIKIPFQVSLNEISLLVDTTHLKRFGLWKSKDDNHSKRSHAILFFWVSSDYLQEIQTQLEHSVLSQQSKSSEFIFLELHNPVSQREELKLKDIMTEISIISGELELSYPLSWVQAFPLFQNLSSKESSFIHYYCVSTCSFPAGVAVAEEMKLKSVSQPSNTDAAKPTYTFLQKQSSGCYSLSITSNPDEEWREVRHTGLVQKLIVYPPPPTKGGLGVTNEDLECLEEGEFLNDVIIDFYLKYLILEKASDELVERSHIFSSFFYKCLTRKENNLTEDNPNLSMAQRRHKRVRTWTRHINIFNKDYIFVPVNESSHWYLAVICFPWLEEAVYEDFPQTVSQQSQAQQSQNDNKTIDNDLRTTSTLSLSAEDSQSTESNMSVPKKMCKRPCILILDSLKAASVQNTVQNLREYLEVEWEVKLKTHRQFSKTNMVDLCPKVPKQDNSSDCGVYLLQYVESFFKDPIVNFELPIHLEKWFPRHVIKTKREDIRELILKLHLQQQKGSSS

[10] = blockers of bursicon-stimulated LGR2 cAMP reporter – cell-based, HEK293, CRE-luciferase reporter, cherry pick, set 2, dose response (AID 743343); assay type: functional;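 further: transfected cells were stimulated with diluted bursicon conditioned medium after compound addition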
[11] = toxicity toward HepG2 liver cells – cell-based, plate reader, cherry-pick, antagonist series, cytotoxicity control, dose response (AID 743416); assay type: functional
[12] = A549 cell cytotoxicity, dose response, cytotoxicity control, plate reader, cherry-pick, antagonist series (AID 743412); assay type: functional, cell-based
[13] = viability loss in HEK293 cells – cell-based, plate reader, cherry-picked samples, cytotoxicity control, dose response (AID 743446); assay type: functional
[14] = blockade of melanocortin 4 receptor signaling – cell-based, plate reader, cherry pick, counter-screen for LGR2 antagonist project, dose response (AID 743444); assay type: functional;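 further: transfected HEK 293 cells stimulated with alpha-MSH peptide; potency of inhibitors of the alpha-MSH evoked signal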
[15] = Luminescence Cell-Based Dose Retest to Confirm Inhibitors of Cancer Stem Cells. [Related pubchem assays (depositor defined):AID2717, AID2721]; assay type: functional; settings: Homo sapiens
Paired box protein Pax-8 = Paired box protein Pax-8 (Homo sapiens, UniProt Q06710); assay: PAX8 transcriptional activity inhibition in RMG-I – RMG-I cells, luciferase, cherry-pick, dose response (AID 687027); assay type: functional, cell-based;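 further: luciferase reporter driven by Pax8 target thyroperoxidase promoter measured by SteadyGlo luminescence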
[16] = blockers of HIV-1 ZM109 envelope-driven cell-cell fusion – HeLa effector, CEM target cells, luciferase, cherry-pick, dose response (AID 652058); assay type: functional, cell-based;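 further: luciferase signal from HIV-1 Env mediated cell-cell fusion of effector and target cells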
[17] = viability loss in THP-1 monocytes – THP-1 cells, cytotoxicity control for Vif-APOBEC3G degradation inhibitor project, dose response (AID 1117359); assay type: functional; settings: THP-1
[18] = target: Photoreceptor-specific nuclear receptor (Homo sapiens, UniProt Q9Y5X4); assay type: functional, cell-based;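 further: CHO-S cells with Gal4-NCOR and VP16-NR2E3 two-hybrid luciferase reporter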
HEK293 = assay: EBV LMP1 TES2 canonical NF-kB signalling blockers – cell-based, HEK293, luciferase, cherry-pick, dose response (AID 588343); assay type: functional; settings: Homo sapiens

Sequence of Photoreceptor-specific nuclear receptor (Q9Y5X4 whole entry, the tested form may be a part): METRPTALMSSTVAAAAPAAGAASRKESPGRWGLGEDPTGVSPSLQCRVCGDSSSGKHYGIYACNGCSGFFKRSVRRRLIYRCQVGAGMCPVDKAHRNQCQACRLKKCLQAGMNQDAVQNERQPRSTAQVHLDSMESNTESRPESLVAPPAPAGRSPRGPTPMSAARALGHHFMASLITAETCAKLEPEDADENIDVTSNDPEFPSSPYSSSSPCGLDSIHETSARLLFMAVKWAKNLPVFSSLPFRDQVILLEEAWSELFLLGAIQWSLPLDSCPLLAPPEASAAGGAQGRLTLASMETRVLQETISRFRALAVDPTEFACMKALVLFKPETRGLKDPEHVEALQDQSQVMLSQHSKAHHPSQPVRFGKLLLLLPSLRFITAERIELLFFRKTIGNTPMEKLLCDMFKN
Sequence of Paired box protein Pax-8 (Q06710 whole entry, the tested form may be a part): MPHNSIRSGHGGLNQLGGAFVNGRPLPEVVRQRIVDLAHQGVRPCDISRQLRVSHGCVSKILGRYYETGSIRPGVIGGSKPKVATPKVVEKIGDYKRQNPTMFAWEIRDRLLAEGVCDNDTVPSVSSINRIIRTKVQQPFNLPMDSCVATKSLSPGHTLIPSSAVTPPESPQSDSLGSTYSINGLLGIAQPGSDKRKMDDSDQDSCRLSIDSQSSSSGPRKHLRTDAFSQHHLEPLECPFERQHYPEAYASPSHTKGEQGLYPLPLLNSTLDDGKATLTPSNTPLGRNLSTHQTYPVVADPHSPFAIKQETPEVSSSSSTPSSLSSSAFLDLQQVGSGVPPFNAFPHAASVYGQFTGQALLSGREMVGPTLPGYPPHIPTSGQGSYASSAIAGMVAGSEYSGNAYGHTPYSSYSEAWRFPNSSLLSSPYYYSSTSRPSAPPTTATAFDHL

SMILES: COc1c2ccoc2c(S(=O)(=O)Nc2ccc(Cl)cc2)c2oc(C)cc(=O)c12
GI50 (P388): 69.3 µM (inactive)
GI50 (SN12K1): > 100 µM (inactive)
GI50 (P388/ADR): 72.4 µM (inactive)

SMILES: O=S(=O)(c1ccc(F)cc1)N1CCCCN2[C@H](CO)[C@H](c3ccc(-c4ccccc4F)cc3)[C@H]2C1
AC50 [1]: 1.97 µM (active)
AC50 [2]: 11 µM (active)

SMILES: COc1cccc(CN2CCC2(C)C(=O)Nc2cccc(Oc3ccccc3)c2)c1OC (centres undefined)
AC50 [3]: 3.47 µM (active)
AC50 [4]: > 70 µM (inactive)
AC50 [5]: 61.8 µM (active)
AC50 [6]: 20.4 µM (active)

SMILES: O=C(O)CCCCCCC[C@@H]1S[C@H]1CCCCCCO
GI50 (P388): > 100 µM (inactive)
GI50 (SN12K1): > 100 µM (inactive)
GI50 (P388/ADR): > 100 µM (inactive)

IC50 (Caspase-3): 17.7 µM (active)
IC50 [7]: 22.4 µM (active)
IC50 [9]: 7.71 µM (active)
SMILES: O=C(NCCSc1ccccc1)c1ccc(Br)cc1
IC50 [8]: 26.8 µM (active)

SMILES: O=C(c1cc(-c2ccccc2Cl)nc2ccc(Br)cc12)N1CCN(c2ccccn2)CC1
AC50 [10]: 28.3 µM (active)
AC50 [11]: 50.3 µM (active)
AC50 [12]: 34.5 µM (active)
AC50 [13]: 22.8 µM (active)
AC50 [14]: 29.2 µM (active)

IC50 (Caspase-3): 28.8 µM (active)
IC50 [7]: 7.84 µM (active)
IC50 [9]: 5.14 µM (active)
SMILES: O=C(Nc1ccc(C2CC2(Cl)Cl)cc1)c1cccc([N+](=O)[O-])c1 (centres undefined)
IC50 [8]: 29.5 µM (active)

IC50 (Caspase-3): 21.1 µM (active)
IC50 [7]: 25 µM (active)
IC50 [9]: 7.1 µM (active)
SMILES: COc1ccc(/C=N/N2CCN(c3ccccc3OC)CC2)cc1Br
IC50 [8]: 54.9 µM (active)

SMILES: C[C@H](CO)N1C[C@H](C)[C@@H](CN(C)Cc2ccccc2)Oc2ccc(NC(=O)Nc3ccc(F)cc3)cc2CC1=O
AC50 [1]: 4.02 µM (active)
AC50 [2]: > 39 µM (inactive)

SMILES: CC(C)CC/N=c1/cc2n(-c3ccc(Cl)cc3)c3ccccc3nc-2cc1Nc1ccc(Cl)cc1
GI50 (P388): 2.82 µM (inactive)
GI50 (SN12K1): 6.4 µM (inactive)
GI50 (P388/ADR): 2.19 µM (inactive)

IC50 (Caspase-3): 37.2 µM (active)
IC50 [7]: 41.8 µM (active)
IC50 [9]: 9.32 µM (active)
SMILES: CCCCCc1ccc(-c2ccc(OC)cc2)nc1
IC50 [8]: 80.5 µM (active)

SMILES: Cn1nnnc1Sc1ncnc2scc(-c3cccc(Br)c3)c12
AC50 [10]: 5.22 µM (active)
AC50 [12]: 9.25 µM (active)
AC50 [15]: 1.86 µM (active)
AC50 (Paired box protein Pax-8): 2.75 µM (active)
AC50 [13]: 11.1 µM (active)
AC50 [14]: 6.1 µM (active)

SMILES: C[C@H]1CN([C@@H](C)CO)C(=O)Cc2cc(NC(=O)Nc3ccc(F)cc3)ccc2O[C@H]1CN(C)CC1CCCCC1
AC50 [11]: 16.6 µM (active)
AC50 [12]: 9.61 µM (active)
AC50 [13]: 15.4 µM (active)
AC50 [14]: 55.8 µM (active)

SMILES: Nc1nc(N)nc(-c2ccccc2NS(=O)(=O)c2ccc([N+](=O)[O-])cc2)n1
GI50 (P388): 57.1 µM (inactive)
GI50 (SN12K1): > 56.5 µM (inactive)
GI50 (P388/ADR): 38.5 µM (inactive)

SMILES: CCCCCCCCCCCCCCCC(=O)OCC1OC(n2ccc(N)nc2=O)C(O)C1O (centres undefined)
AC50 [3]: 0.557 µM (active)
AC50 [4]: 0.44 µM (active)
AC50 [5]: 24 µM (active)
AC50 [6]: 0.922 µM (active)
AC50 [16]: < 0.26 µM (active)

SMILES: O=C1/C(=C/c2ccco2)SC(=S)N1C1CCS(=O)(=O)C1 (centres undefined)
CC50 [17]: > 40 µM (active)

SMILES: Cc1cccc(-c2ccc([C@H]3[C@H]4CN(CCC(F)(F)F)CCCCN4[C@H]3CO)cc2)c1
AC50 [1]: 1.08 µM (active)
AC50 [2]: 9.1 µM (active)

SMILES: CCCCCCCCCCNC1CC(OC2CC(O)(C(O)CO)Cc3c(O)c4c(c(O)c32)C(=O)c2c(OC)cccc2C4=O)OC(C)C1O (centres undefined)
GI50 (P388): 0.168 µM (active)
GI50 (SN12K1): 1.25 µM (inactive)
GI50 (P388/ADR): 1.52 µM (inactive)

SMILES: CCCCCCCCN1C(=O)[C@H](CC(=O)NCCCC)C[C@@]2(C(=O)OCC)CCCC=C12
AC50 [3]: 7.2 µM (active)
AC50 [4]: 66.4 µM (active)
AC50 [5]: 37.5 µM (active)
AC50 [6]: 16.3 µM (active)
AC50 [16]: 23.2 µM (active)

SMILES: COCCn1c(C)cc(C(=O)COc2ccc(C)nc2[N+](=O)[O-])c1C
IC50 [18]: 5.55 µM (active)
AC50 (HEK293): 9.91 µM (active)
